Results on 28 compounds are retold here after patent publication US12466821B2 (Novartis AG, priority 2018, dated 2025).

In test [1] the test system is Luciferase-encoding HCMV, AD169 strain. Nature of the test: CMV Luciferase assay (cellular herpesvirus replication). To be noted: Human betaherpesvirus 5, AD169, read-out: CMV-Luc Cellular EC50. It counts as cell-based. A digest of the protocol:
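Neonatal human dermal fibroblasts were pretreated 1 h with compound (final 0.0159–50 μM or 0.00318–10 μM, 0.5% DMSO), then infected at MOI 1 with AD169 carrying pp28-promoter luciferase. After 72 h at 37 °C, Renilla-Glo luminescence normalized to no-virus and virus-only controls; EC50 by 4-parameter logistic model.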

Test [2] addresses human HSV DNA polymerase UL30 (Human herpesvirus 1 (strain 17) (HHV-1) (Human herpes simplex virus 1), UniProt P04293). Nature of the test: HSV polymerase biochemical assay (molecular beacon-based). Summed up: (§1)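 Readout was beacon fluorescence (ex 480, em 535 nm), used to derive IC50. Each dNTP was at 1.25 uM, with 200 nM primer and 100 nM beacon, after a 30-min RT inhibitor preincubation. Enzyme was 625 pM for HSV UL30 (20 min RT reaction) or 100 pM for CMV UL54 (60 min RT), both sf9-expressed MBP fusions, in pH 7.5 Tris buffer with MgCl2.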

Test [3] concerns the target human CMV DNA polymerase UL54 (Human cytomegalovirus (strain AD169) (HHV-5) (Human herpesvirus 5), UniProt P08546). Nature of the test: CMV polymerase biochemical assay (molecular beacon-based). A digest of the protocol:
as §1

For the compound `CC1(CS(=O)(=O)C2(CN3CCn4c(ccc(C(=O)NCc5ccc(C#N)c(F)c5)c4=O)C3=O)CC2)CC1` [Example 109, N-(4-cyano-3-fluorobenzyl)-2-((1-(((1-methylcyclopropyl)methyl)sulfonyl)cyclopropyl)methyl)-1,6-dioxo-1,3,4,6-tetrahydro-2H-pyrido[1,2-a]pyrazine-7-carboxamide], in test [1], the EC50 stood at 112 nM. The IC50 worked out at 121 nM in test [2] and 3.2 nM in test [3].

For `N#CC1(CS(=O)(=O)C2(CN3CCn4c(ccc(C(=O)NCc5ccc(Cl)cc5)c4=O)C3=O)CC2)CC1` [Example 110, N-(4-chlorobenzyl)-2-((1-(((1-cyanocyclopropyl)methyl)sulfonyl)cyclopropyl)methyl)-1,6-dioxo-1,3,4,6-tetrahydro-2H-pyrido pyrazine-7-carboxamide], the EC50 in test [1] amounted to 81.7 nM. Also, the IC50 in test [2] was determined as 33.5 nM; in test [3], 1.9 nM.

In the case of `N#Cc1ccc(CNC(=O)c2ccc3n(c2=O)CCN(CC2(S(=O)(=O)CC4(C#N)CC4)CC2)C3=O)cc1` [Example 111], the EC50 in test [1] was 433 nM. The results for the IC50 in test [2] and in test [3] were 59.5 nM and 3.6 nM, respectively.

As for `N#Cc1ccc(CNC(=O)c2ccc3n(c2=O)CCN(CC2(S(=O)(=O)CC4(C#N)CC4)CC2)C3=O)cc1F` [Example 112], the EC50 in test [1] amounted to 187 nM. Besides, the IC50 in test [2] worked out at 44.1 nM; in test [3], 2.2 nM.

`CS(=O)(=O)N(CCN1CCn2c(ccc(C(=O)NCc3ccc(Cl)cc3)c2=O)C1=O)C1CC1` [Example 115, N-(4-chlorobenzyl)-2-(2-(N-cyclopropylmethylsulfonamido)ethyl)-1,6-dioxo-2,3,4,6-tetrahydro-1H-pyrido[1,2-a]pyrazine-7-carboxamide]: in test [1], the EC50 came to 15000 nM. For the same compound, the IC50 in test [2] is 13600 nM; in test [3], 747 nM.

Consider `O=C(NCc1ccc(Cl)cc1)c1ccc2n(c1=O)CCN(CCO)C2=O` [Example 116, N-(4-chlorobenzyl)-2-(2-hydroxyethyl)-1,6-dioxo-2,3,4,6-tetrahydro-1H-pyrido[1,2-a]pyrazine-7-carboxamide], for which the EC50 in test [1] is 24700 nM. The IC50 worked out at 14100 nM in test [2] and 2140 nM in test [3].

With `CS(=O)(=O)CCN1CCn2c(c(Br)cc(C(=O)NCc3ccc(Cl)cc3)c2=O)C1=O` [Example 117, 9-bromo-N-(4-chlorobenzyl)-2-(2-(methylsulfonyl)ethyl)-1,6-dioxo-1,3,4,6-tetrahydro-2H-pyrido[1,2-a]pyrazine-7-carboxamide], the EC50 in test [1] was found to be 1440 nM. Further, the IC50 is 577 nM in test [2] and 285 nM in test [3].

With `O=C(NCc1ccc(Cl)cc1)c1cc(Br)c2n(c1=O)CCN(CCN1CCCS1(=O)=O)C2=O` [Example 124, 9-bromo-N-(4-chlorobenzyl)-2-(2-(1,1-dioxidoisothiazolidin-2-yl)ethyl)-1,6-dioxo-1,3,4,6-tetrahydro-2H-pyrido[1,2-a]pyrazine-7-carboxamide], the EC50 in test [1] came out at 874 nM. In addition, the IC50 came to 310 nM in test [2] and 83.1 nM in test [3].

On to `CS(=O)(=O)CCN1CCn2c(c(C#N)cc(C(=O)NCc3ccc(Cl)cc3)c2=O)C1=O` [Example 125, N-(4-chlorobenzyl)-9-cyano-2-(2-(methylsulfonyl)ethyl)-1,6-dioxo-1,3,4,6-tetrahydro-2H-pyrido[1,2-a]pyrazine-7-carboxamide], for which, in test [1], the EC50 worked out at 20200 nM. Besides, the IC50 in test [2] was 1010 nM; in test [3], 566 nM.

As for `CS(=O)(=O)CCCN1CCn2c(c(C#N)cc(C(=O)NCc3ccc(Cl)cc3)c2=O)C1=O` [Example 126], in test [1], the EC50 turned out to be 50000 nM. The results for the IC50 in test [2] and in test [3] were 1970 nM and 1200 nM, respectively.

For the compound `CN(CCN1CCn2c(c(C#N)cc(C(=O)NCc3ccc(Cl)cc3)c2=O)C1=O)S(C)(=O)=O` [Example 127], the EC50 in test [1] was 19900 nM. Besides, the IC50 in test [2] was 4790 nM; in test [3], 545 nM.

With `CN(CCN1CCn2c(c(C3CC3)cc(C(=O)NCc3ccc(Cl)cc3)c2=O)C1=O)S(C)(=O)=O` [Example 128, N-(4-chlorobenzyl)-9-cyclopropyl-2-(2-(N-methylmethylsulfonamido)ethyl)-1,6-dioxo-1,3,4,6-tetrahydro-2H-pyrido[1,2-a]pyrazine-7-carboxamide], the EC50 in test [1] came to 2380 nM. Moreover, the IC50 is 2560 nM in test [2] and 153 nM in test [3].

On to `CS(=O)(=O)C1(CN2CCn3c(c(C4CC4)cc(C(=O)NCc4ccc(Cl)cc4)c3=O)C2=O)CC1` [Example 132], for which, in test [1], the EC50 worked out at 70.7 nM. The IC50 in test [2] is 138 nM; in test [3], 3.1 nM.

For the compound `CCc1cc(C(=O)NCc2ccc(Cl)cc2)c(=O)n2c1C(=O)N(CCN(C)S(C)(=O)=O)CC2` [Example 134, N-(4-chlorobenzyl)-9-ethyl-2-(2-(N-methylmethylsulfonamido)ethyl)-1,6-dioxo-1,3,4,6-tetrahydro-2H-pyrido[1,2-a]pyrazine-7-carboxamide], the EC50 in test [1] was determined as 2870 nM. Also, the IC50 in test [2] was 2120 nM; in test [3], 268 nM.

Consider `CCc1cc(C(=O)NCc2ccc(Cl)cc2)c(=O)n2c1C(=O)N(CC1(S(C)(=O)=O)CC1)CC2` [Example 136], for which the EC50 in test [1] is 86.7 nM. The IC50 in test [2] is 136 nM; in test [3], 2.5 nM.

For the compound `CN(CCN1CCn2c(c(CO)cc(C(=O)NCc3ccc(Cl)cc3)c2=O)C1=O)S(C)(=O)=O` [Example 137, N-(4-chlorobenzyl)-9-(hydroxylmethyl)-2-(2-(N-methylmethylsulfonamido)ethyl)-1,6-dioxo-1,3,4,6-tetrahydro-2H-pyrido[1,2-a]pyrazine-7-carboxamide], the EC50 in test [1] amounted to 19700 nM. Further, the IC50 in test [2] is 3900 nM; in test [3] it was 348 nM.

On to `CS(=O)(=O)CCCN1CCn2c(c(CO)cc(C(=O)NCc3ccc(Cl)cc3)c2=O)C1=O` [Example 139], for which, in test [1], the EC50 turned out to be 50000 nM. Besides, the IC50 in test [2] came out at 3580 nM; in test [3] it was 989 nM.

As for `CN(CCN1CCn2c(c(CF)cc(C(=O)NCc3ccc(Cl)cc3)c2=O)C1=O)S(C)(=O)=O` [Example 140, N-(4-chlorobenzyl)-9-(fluoromethyl)-2-(2-(N-methylmethylsulfonamido)ethyl)-1,6-dioxo-1,3,4,6-tetrahydro-2H-pyrido[1,2-a]pyrazine-7-carboxamide], in test [1], the EC50 is 2220 nM. The results for the IC50 in test [2] and in test [3] were 4260 nM and 242 nM, respectively.

In the case of `O=C(NCc1ccc(Cl)cc1)c1cc(CF)c2n(c1=O)CCN(CCN1CCCS1(=O)=O)C2=O` [Example 141], the EC50 in test [1] turned out to be 1650 nM. Moreover, the IC50 in test [2] was 328 nM; in test [3], 72.8 nM.

In the case of `CN(CCN1CCn2c(c(C(F)F)cc(C(=O)NCc3ccc(Cl)cc3)c2=O)C1=O)S(C)(=O)=O` [Example 143, N-(4-chlorobenzyl)-9-(difluoromethyl)-2-(2-(N-methylmethylsulfonamido)ethyl)-1,6-dioxo-1,3,4,6-tetrahydro-2H-pyrido[1,2-a]pyrazine-7-carboxamide], the EC50 in test [1] was determined as 30600 nM. For the same compound, the IC50 in test [2] worked out at 6310 nM; in test [3] it was 649 nM.

For the compound `CS(=O)(=O)CCCN1CCn2c(c(C(F)F)cc(C(=O)NCc3ccc(Cl)cc3)c2=O)C1=O` [Example 145], in test [1], the EC50 was 30200 nM. Further, the IC50 was determined as 6820 nM in test [2] and 1410 nM in test [3].

`O=C(NCc1ccc(Cl)cc1)c1cc(C(F)(F)F)c2n(c1=O)CCN(CCN1CCCS1(=O)=O)C2=O` [Example 147]: the EC50 in test [1] amounted to 21400 nM. Also, the IC50 was 5050 nM in test [2] and 558 nM in test [3].

As for `Cc1cc(C(=O)NCc2ccc(Cl)cc2)c(=O)n2c1C(=O)N(CCN(C)S(C)(=O)=O)CC2` [Example 148, N-(4-chlorobenzyl)-9-methyl-2-(2-(N-methylmethylsulfonamido)ethyl)-1,6-dioxo-1,3,4,6-tetrahydro-2H-pyrido[1,2-a]pyrazine-7-carboxamide], the EC50 in test [1] is 1660 nM. Further, the IC50 amounted to 1510 nM in test [2] and 181 nM in test [3].

As to `Cc1cc(C(=O)NCc2ccc(Cl)cc2)c(=O)n2c1C(=O)N(CC1(N(C)S(C)(=O)=O)CC1)CC2` [Example 149], the EC50 in test [1] came out at 7910 nM. In addition, the half-inhibitory concentration (IC50) in test [2] turned out to be 2200 nM; in test [3], 112 nM.

Take `Cc1cc(C(=O)NCc2ccc(Cl)cc2)c(=O)n2c1C(=O)N(CCCS(C)(=O)=O)CC2` [Example 152]: in test [1], the EC50 is 9190 nM. Moreover, the IC50 in test [2] amounted to 1670 nM; in test [3], 653 nM.

On to `Cc1cc(C(=O)NCc2ccc(Cl)cc2)c(=O)n2c1C(=O)N(CCS(C)(=O)=O)CC2` [Example 153], for which the EC50 in test [1] was determined as 626 nM. The IC50 in test [2] came out at 388 nM; in test [3], 118 nM.

For `CN(CCN1CCn2c(c(C#CCO)cc(C(=O)NCc3ccc(Cl)cc3)c2=O)C1=O)S(C)(=O)=O` [Example 155, N-(4-chlorobenzyl)-9-(3-hydroxyprop-1-yn-1-yl)-2-(2-(N-methylmethylsulfonamido)ethyl)-1,6-dioxo-1,3,4,6-tetrahydro-2H-pyrido[1,2-a]pyrazine-7-carboxamide], the EC50 in test [1] came to 37200 nM. In addition, the IC50 in test [2] was determined as 1950 nM; in test [3], 201 nM.

As to `CS(=O)(=O)CCCN1CCn2c(c(C#CCO)cc(C(=O)NCc3ccc(Cl)cc3)c2=O)C1=O` [Example 156], the concentration giving a half-maximal response (EC50) in test [1] worked out at 50000 nM. The IC50 in test [2] turned out to be 2110 nM; in test [3], 913 nM.
